Test system: industrial S. cerevisiae strains ATCC 7754 and ATCC 4921
Assay: Growth/resistance of industrial yeast strains, untransformed and transformed with pCP2-4-10
Format: cell-based, Saccharomyces cerevisiae
Settings: for resistance of industrial transformants to structurally related sulfonylurea growth inhibitors: ATCC 7754 and ATCC 4921 transformed with pCP2-4-10
Procedure: […]. […] The optimum period of incubation with glusulase for producing spheroplasts was determined to be approximately 3 hours.
The resulting industrial transformants were resistant to other, structurally related sulfonylurea growth inhibitors in addition to sulfometuron methyl. These inhibitors included N-[(4-methoxy-6-methyl-pyrimidin-2-yl)aminocarbonyl]-2-nitrobenzenesulfonamide; N-[(4,6-dimethoxy-pyrimidin-2-yl)-aminocarbonyl]-2-methylthiobenzenesulfonamide; and 2-[[(4-chloro-6-methoxypyrimidine-2-yl)amino carbonyl]aminosulfonyl]benzoic acid, ethyl ester.

Row | SMILES | resistance of industrial transformants to structurally related sulfonylurea growth inhibitors | growth of untransformed wild-type strains (30 μg/mL, ATCC 7754 and ATCC 4921, untransformed)
1 | CCOC(=O)c1ccccc1S(=O)(=O)NC(=O)Nc1nc(Cl)cc(OC)n1 [2-[[(4-chloro-6-methoxypyrimidine-2-yl)aminocarbonyl]aminosulfonyl]benzoic acid, ethyl ester] | resistant | 
2 | COc1cc(OC)nc(NC(=O)NS(=O)(=O)c2ccccc2SC)n1 [N-[(4,6-dimethoxy-pyrimidin-2-yl)-aminocarbonyl]-2-methylthiobenzenesulfonamide] | resistant | 
3 | COc1cc(C)nc(NC(=O)NS(=O)(=O)c2ccccc2[N+](=O)[O-])n1 [N-[(4-methoxy-6-methyl-pyrimidin-2-yl)aminocarbonyl]-2-nitrobenzenesulfonamide] | resistant | 
4 | COC(=O)c1ccccc1S(=O)(=O)NC(=O)Nc1nc(C)cc(C)n1 [sulfometuron methyl] |  | completely inhibited

From US4626505A, “Selectable markers for yeast transformation” (E. I. Du Pont de Nemours and Company, priority 1984, dated 1986)
